According to patent publication US4405608A, “Novel peptide” (Novo Industri A/S, priority 1981, dated 1983):
No end group written: not given here.

Experiment: Toxicology: repeated subcutaneous administration to cats
Format: in vivo
Conditions: repeated s.c. administration of increasing doses up to 16 μg/kg body weight

RSLQNTEEKSRSFPAPQTDPLDDPDQMTED [GRPP]
adverse effects: did not cause any adverse effects
